Molecular target: T1, MtPPO7 (Thermothelomyces thermophilus, UniProt A0A1C9CXH9)
T1 construct: secreted enzyme over-expressed in homologous M. thermophila C1 (low protease/low (hemi-)cellulase strain), fractionated from culture broth; KX772412 is printed as 'UniProt' but has GenBank format
T1 sequence (A0A1C9CXH9 19-420): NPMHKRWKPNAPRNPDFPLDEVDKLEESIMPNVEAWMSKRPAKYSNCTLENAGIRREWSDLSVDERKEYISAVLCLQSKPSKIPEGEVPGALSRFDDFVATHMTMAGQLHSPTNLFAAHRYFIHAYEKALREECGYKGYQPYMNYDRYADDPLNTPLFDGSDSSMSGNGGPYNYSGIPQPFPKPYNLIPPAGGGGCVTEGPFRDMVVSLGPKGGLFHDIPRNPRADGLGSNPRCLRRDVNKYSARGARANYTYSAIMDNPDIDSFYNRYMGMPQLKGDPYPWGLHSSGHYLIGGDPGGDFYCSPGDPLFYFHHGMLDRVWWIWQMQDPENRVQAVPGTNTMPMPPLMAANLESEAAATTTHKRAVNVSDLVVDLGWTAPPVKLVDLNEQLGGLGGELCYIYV
Experiment: UHPLC-UV-MSn of substrate conversion
Format: biochemical
Details: 2 mM substrate, 5.0 ug/mL enzyme, 50 mM potassium phosphate pH 6.0, 2.5 uM CuCl2, 50 °C, 24 h; ortho-hydroxylation

COc1ccccc1O [compound 9, Guaiacol]
conversion (%): The conversion of guaiacol by MtPPO7 resulted in the initial formation of 3-methoxycatechol
